From PubChem BioAssay AID588712 (The Scripps Research Institute Molecular Screening Center, 2011) come the findings set out here.

Several values for one entry are separate records, joined by “and”; a condition that tells them apart may be missing. Equal entries are not always repeated. Activity calls are given as the source filed them. No rule for the calls is given here.

The target of the experiment is Insulin-degrading enzyme (Homo sapiens) (UniProt P14735). Description: inhibitors of cellular IDE activity, late-stage follow-up, cell-based, fluorescence polarization (AID 588712).
Chain of Insulin-degrading enzyme (Homo sapiens) (P14735 whole entry, looked up): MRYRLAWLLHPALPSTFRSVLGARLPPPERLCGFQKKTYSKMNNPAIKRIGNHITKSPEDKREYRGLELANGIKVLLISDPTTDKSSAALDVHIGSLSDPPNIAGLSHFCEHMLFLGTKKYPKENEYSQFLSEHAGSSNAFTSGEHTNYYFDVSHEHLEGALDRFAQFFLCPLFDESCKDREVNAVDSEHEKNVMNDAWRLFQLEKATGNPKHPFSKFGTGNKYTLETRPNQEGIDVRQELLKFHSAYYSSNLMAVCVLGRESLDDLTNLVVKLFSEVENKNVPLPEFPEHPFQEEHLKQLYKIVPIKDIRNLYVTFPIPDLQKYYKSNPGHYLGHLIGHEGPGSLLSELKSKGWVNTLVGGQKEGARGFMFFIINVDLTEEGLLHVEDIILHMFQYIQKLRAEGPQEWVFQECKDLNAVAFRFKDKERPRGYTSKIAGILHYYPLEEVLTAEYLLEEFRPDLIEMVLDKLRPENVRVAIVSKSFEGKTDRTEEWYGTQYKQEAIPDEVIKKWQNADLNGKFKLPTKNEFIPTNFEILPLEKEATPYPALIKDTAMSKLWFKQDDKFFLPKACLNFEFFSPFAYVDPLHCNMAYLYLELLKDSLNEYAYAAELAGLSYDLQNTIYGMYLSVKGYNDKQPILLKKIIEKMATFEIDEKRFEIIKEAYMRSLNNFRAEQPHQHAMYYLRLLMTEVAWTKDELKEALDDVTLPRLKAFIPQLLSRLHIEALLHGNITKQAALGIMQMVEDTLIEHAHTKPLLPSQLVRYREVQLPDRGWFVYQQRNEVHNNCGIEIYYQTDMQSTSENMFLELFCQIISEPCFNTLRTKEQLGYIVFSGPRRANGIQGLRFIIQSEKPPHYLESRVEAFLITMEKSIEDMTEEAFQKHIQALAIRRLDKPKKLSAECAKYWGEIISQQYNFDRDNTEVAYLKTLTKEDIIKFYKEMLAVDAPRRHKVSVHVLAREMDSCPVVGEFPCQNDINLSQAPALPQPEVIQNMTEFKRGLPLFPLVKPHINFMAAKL
With `COc1cccc(-c2nnc(SCc3nc4ccccc4[nH]3)n2Cc2ccco2)c1`, the IC50 was 9.38 µM.

Regarding `Cc1ccc(-c2nc(C(=O)Nc3cccc(C(F)(F)F)c3)cs2)cc1`, the IC50 is > 54.7 µM (inactive).

As for `O=C(Nc1cc(C(F)(F)F)cc(C(F)(F)F)c1)c1csc(-c2ccncc2)n1`, the IC50 is > 54.7 µM (inactive).

Consider `COc1ccc(C(=O)N2CCN(C(=O)C3COc4ccccc4O3)CC2)cc1OC` (stereo unspecified), for which the IC50 is > 54.7 µM (inactive).

On to `Cc1c(CCC(=O)NCCCn2ccnc2)c(=O)oc2cc3oc4c(c3cc12)CCCC4`, for which the IC50 was 7.32 µM.

Regarding `O=C(CSc1nnc(-c2cccc(Cl)c2)n1Cc1ccco1)c1ccc2ccccc2c1`, the IC50 was > 54.7 µM (inactive).

As for `COc1cc(/C=C2\SC(=S)N(NC(C)=O)C2=O)ccc1OC(=O)c1ccco1`, the IC50 entry is “inactive”.

With `Clc1cccc(-c2nnc(SCc3nc4ccccc4[nH]3)n2Cc2ccco2)c1`, the IC50 is 3.09 µM.

As for `Cc1nc(-c2cccnc2)sc1C(=O)Nc1cccc(C(F)(F)F)c1`, the IC50 is > 54.7 µM (inactive).

With `CCN(CC)c1ccc(/C=C2\C(=N)N3N=C(CC(=O)N4CCOCC4)SC3=NC2=O)cc1`, the IC50 entry was “inactive”.

Turning to `O=C(Nc1cccc(C(F)(F)F)c1)c1csc(Cc2cccc(C(F)(F)F)c2)n1`, the IC50 was > 54.7 µM (inactive).

Turning to `Nc1c(C(=O)Nc2nccs2)sc2nc(-c3cccs3)cc(C(F)(F)F)c12`, the IC50 is > 54.7 µM (inactive).

Take `O=C(Nc1cccc(C(F)(F)F)c1)c1csc(-c2cccc(C(F)(F)F)c2)n1`: the IC50 is > 54.7 µM (inactive).

With `Cc1ccc(NC(=O)CSc2nnc(-c3cccc(Cl)c3)n2Cc2ccco2)c(C)c1`, the IC50 is > 54.7 µM (inactive).

Consider `Cc1ccc(C)c(N2C(=N)S/C(=C\c3ccc(-c4ccccc4C(=O)O)o3)C2=O)c1`, for which the IC50 was > 54.7 µM (inactive).

With `COc1ccc(-c2nc(C(=O)Nc3cccc(C(F)(F)F)c3)cs2)cc1`, the IC50 is > 54.7 µM (inactive).

`O=c1c2ccccc2sn1-c1cc(S(=O)(=O)N2CCOCC2)ccc1N1CCOCC1`: the IC50 is 2.17 µM.

With `CCOc1ccc2[nH]c3c(N4CCN(C(=O)c5ccco5)CC4)ncnc3c2c1`, the IC50 entry is “inactive”.

As for `O=C(Nc1ccc2oc(-c3cccnc3)nc2c1)c1ccc2c(c1)OCCO2`, the IC50 was > 54.7 µM (inactive).

Consider `Cn1c(SCc2nc3ccccc3[nH]2)nnc1-c1cccc(Cl)c1`, for which the IC50 was > 54.7 µM (inactive).

Regarding `CC(Sc1nnc(-c2cccnc2)n1-c1ccccc1F)C(=O)N1CCCc2ccccc21` (stereo unspecified), the IC50 is > 54.7 µM (inactive).

For `Cn1c(=O)c(C(=O)CN2CCCc3ccccc32)c(N)n(Cc2ccccc2)c1=O`, the IC50 is > 54.7 µM (inactive).

Turning to `O=C(CSc1nnc(-c2cccc(Cl)c2)n1Cc1ccco1)Nc1ccc2c(c1)OCCO2`, the IC50 was > 54.7 µM (inactive).

In the case of `O=C(Nc1cccc(C(F)(F)F)c1)c1csc(-c2ccccc2)n1`, the IC50 was > 54.7 µM (inactive).

For `COc1ccc(NC(=O)CSc2nnc(CN3CCOCC3)n2C)cc1Cl`, the IC50 is > 54.7 µM (inactive).

On to `O=C(CSc1nnc(-c2cccc(Cl)c2)n1Cc1ccco1)Nc1ccccc1C(F)(F)F`, for which the IC50 is > 54.7 µM (inactive).

Take `O=C(C1CC1)N1CCN(c2ccnc3cc(Cl)ccc23)CC1`: the IC50 was > 54.7 µM (inactive).

In the case of `Cc1cccc(-c2nnc(SCc3nc4ccccc4[nH]3)n2Cc2ccco2)c1`, the IC50 was 9.21 µM and 8.91 µM.

On to `O=C(CSc1nnc(-c2cccc(Cl)c2)n1Cc1ccco1)Nc1ccc2cn[nH]c2c1`, for which the IC50 is > 54.7 µM (inactive).

For `O=C(Nc1cccc(C(F)(F)F)c1)c1csc(-c2ccncc2)n1`, the IC50 was 5.74 µM.

Take `Clc1cccc(-c2nnc(SCc3nc4ccccc4[nH]3)n2-c2ccccc2)c1`: the IC50 was > 54.7 µM (inactive).
